This is an account of results in PubChem BioAssay (NCI).

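The compound was tested at five concentrations on cells cultured in 96-well plates, with a 48-hour exposure period. GI50: concentration for 50% inhibition of growth. At the TGI there is no net growth.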 Some results are limits rather than exact numbers.

Some test systems named below: HCT-15 colon; SK-MEL-5 melanoma; PC-3 prostate; HL-60(TB) leukemia; MDA-MB-231 breast; 786-0 renal; HCC-2998 colon; DU-145 prostate; CCRF-CEM leukemia; BT-549 breast.
Holding throughout (assay): growth of human tumour cells (NCI), 48 h

With `COC1=CC(=O)C(OC)=C(OC)C1=O`, the GI50 in the assay with HCT-15 colon is 16.2 µM; with SK-MEL-5 melanoma, 16.2 µM; in the assay with PC-3 prostate, 14.9 µM; in the assay on HL-60(TB) leukemia it was 2.92 µM; in the assay on MDA-MB-231 breast it was 2.33 µM; in the assay on 786-0 renal, 18.3 µM. The GI50 was above 100 µM in the assay on HCC-2998 colon, 16 µM in the assay with DU-145 prostate, 2.8 µM in the assay on CCRF-CEM leukemia and 16.7 µM in the assay on BT-549 breast. The TGI amounted to 33.7 µM in the assay on HCT-15 colon; 30.2 µM in the assay on SK-MEL-5 melanoma; 32.8 µM in the assay on PC-3 prostate; 8.73 µM in the assay on HL-60(TB) leukemia; 5.13 µM with MDA-MB-231 breast; 32.5 µM in the assay on 786-0 renal. Besides, the TGI with HCC-2998 colon is above 100 µM; in the assay on DU-145 prostate it was 29.7 µM; in the assay on CCRF-CEM leukemia, 8.39 µM; in the assay with BT-549 breast, 30.4 µM.

With `CC(=O)O[C@@H]1[C@@H](O)C2=C3[C@]4(C)[C@@H]1C(C)(C)C(=O)C[C@@H]4[C@]3(O)[C@H](OC(C)=O)[C@@]1(C[C@@H]1C)C2=O`, the TGI came out at 31.5 µM in the assay on HCT-15 colon; 48.8 µM in the assay on SK-MEL-5 melanoma; 48.9 µM with PC-3 prostate; 49.1 µM in the assay with HL-60(TB) leukemia; 37.7 µM in the assay with MDA-MB-231 breast; 32.4 µM in the assay with 786-0 renal. Further, the TGI in the assay with HCC-2998 colon came to 32.7 µM; with DU-145 prostate, 33.8 µM; with CCRF-CEM leukemia, 34.1 µM; in the assay with BT-549 breast it was 37 µM.

Take `CCN(CC)c1ccc2c(c1)Oc1nc(N)c(C#N)c(N)c1C2Sc1ccc(OC)cc1` (stereo not given): the GI50 is 1.53 µM in the assay with HCT-15 colon; 1.54 µM in the assay on SK-MEL-5 melanoma; 1.71 µM in the assay with PC-3 prostate; 2.28 µM in the assay on HL-60(TB) leukemia; 1.6 µM with MDA-MB-231 breast; 1.74 µM in the assay with 786-0 renal. The GI50 with HCC-2998 colon was 1.81 µM; in the assay with DU-145 prostate, 1.82 µM; in the assay on CCRF-CEM leukemia, 1.75 µM; with BT-549 breast, 1.53 µM. Also, the TGI was determined as 3.11 µM with HCT-15 colon; 2.9 µM in the assay with SK-MEL-5 melanoma; 3.38 µM in the assay on PC-3 prostate; 6.44 µM in the assay on HL-60(TB) leukemia; 3.13 µM in the assay with MDA-MB-231 breast; 3.22 µM with 786-0 renal. The TGI is 3.43 µM with HCC-2998 colon, 3.25 µM in the assay with DU-145 prostate, 5.47 µM in the assay with CCRF-CEM leukemia and 2.95 µM in the assay on BT-549 breast.

On to `CCN1C2=NCCN2S(=O)(=O)c2ccccc21`, for which the TGI in the assay with HCT-15 colon, in the assay on SK-MEL-5 melanoma, in the assay with PC-3 prostate, in the assay on HL-60(TB) leukemia, in the assay on MDA-MB-231 breast and in the assay with 786-0 renal was above 100 µM each time. Also, the TGI in the assay with HCC-2998 colon, in the assay with DU-145 prostate, in the assay on CCRF-CEM leukemia and in the assay with BT-549 breast was above 100 µM throughout.

With `COC(=O)NC1(NC(=O)OC)NC(=O)c2cc(OC)c(OC)c(OC)c2N1`, the TGI in the assay with HCT-15 colon is above 100 µM; with SK-MEL-5 melanoma, above 100 µM; with PC-3 prostate, 72.3 µM; in the assay with HL-60(TB) leukemia, 87.7 µM; in the assay on MDA-MB-231 breast, above 100 µM; with 786-0 renal, above 100 µM. In addition, the TGI in the assay with HCC-2998 colon, in the assay with DU-145 prostate, in the assay on CCRF-CEM leukemia and with BT-549 breast was above 100 µM each time.

`O=C(O)CCC/C=C\C[C@H]1C=CC(=O)/C1=C/C[C@@H](O)CCc1cccc(C(F)(F)F)c1`: the GI50 in the assay on HCT-15 colon was 1.79 µM; in the assay on SK-MEL-5 melanoma, 1.71 µM; in the assay on PC-3 prostate, 3.12 µM; with HL-60(TB) leukemia, 2.37 µM; in the assay with MDA-MB-231 breast, 5.19 µM; with 786-0 renal it was 2.95 µM. Moreover, the GI50 in the assay on HCC-2998 colon is 1.87 µM; in the assay on DU-145 prostate, 2.43 µM; with CCRF-CEM leukemia, 0.465 µM; with BT-549 breast it was 2.83 µM. For the same compound, the TGI in the assay on HCT-15 colon was 4.88 µM; in the assay with SK-MEL-5 melanoma, 3.14 µM; with PC-3 prostate, 10.3 µM; in the assay on HL-60(TB) leukemia, 6.9 µM; in the assay with MDA-MB-231 breast, 21.9 µM; with 786-0 renal, 6.61 µM. Moreover, the TGI was 3.5 µM in the assay with HCC-2998 colon, 10.3 µM in the assay with DU-145 prostate, 10.8 µM with CCRF-CEM leukemia and 11.3 µM in the assay with BT-549 breast.

As for `O=C(/C=N/O)Nc1cc(Cl)c(Cl)cc1Cl`, the TGI in the assay on HCT-15 colon is above 100 µM; in the assay with SK-MEL-5 melanoma it was 33 µM; in the assay on PC-3 prostate, above 100 µM; in the assay with HL-60(TB) leukemia it was 53.8 µM; in the assay on MDA-MB-231 breast, 60 µM; in the assay on 786-0 renal it was above 100 µM. For the same compound, the TGI in the assay with HCC-2998 colon is above 100 µM; in the assay on DU-145 prostate, above 100 µM; with CCRF-CEM leukemia it was 91.9 µM; in the assay with BT-549 breast it was 89.3 µM.

As for `O=C(O)c1cc2ccccc2oc1=O`, the TGI in the assay with HCT-15 colon, with SK-MEL-5 melanoma, with PC-3 prostate, with HL-60(TB) leukemia, in the assay with MDA-MB-231 breast and in the assay with 786-0 renal was above 100 µM each time. Besides, the TGI with HCC-2998 colon, with DU-145 prostate, in the assay on CCRF-CEM leukemia and in the assay on BT-549 breast was above 100 µM each time.

Turning to `CS(=O)(=O)CCNCc1ccc(-c2ccc3ncnc(Nc4ccc(OCc5cccc(F)c5)c(C(F)(F)F)c4)c3c2)o1`, the GI50 in the assay with HCT-15 colon was 4.02 µM; in the assay on SK-MEL-5 melanoma, 2.84 µM; in the assay with PC-3 prostate, 4.86 µM; in the assay on HL-60(TB) leukemia, 5.65 µM; with MDA-MB-231 breast, 3.78 µM; in the assay with 786-0 renal, 4.68 µM. In addition, the GI50 in the assay with HCC-2998 colon was 4.4 µM; in the assay on DU-145 prostate it was 3.91 µM; in the assay with CCRF-CEM leukemia it was 4.8 µM; with BT-549 breast it was 4.9 µM. For the same compound, the TGI was 9.12 µM with HCT-15 colon; 5.9 µM with SK-MEL-5 melanoma; 10.8 µM in the assay on PC-3 prostate; 13.4 µM in the assay with HL-60(TB) leukemia; 9.83 µM with MDA-MB-231 breast; 11.1 µM with 786-0 renal. For the same compound, the TGI amounted to 8.29 µM in the assay with HCC-2998 colon, 8.07 µM in the assay with DU-145 prostate, 13.9 µM in the assay on CCRF-CEM leukemia and 11.9 µM in the assay with BT-549 breast.

Turning to `COc1ccc(/C=C2\CC(C)CC3C2=NN(C(C)=O)C3c2ccc(OC)cc2)cc1` (stereo not given), the GI50 with HCT-15 colon was 16 µM; with SK-MEL-5 melanoma, 13.9 µM; with PC-3 prostate, 24.2 µM; in the assay with HL-60(TB) leukemia it was 13.7 µM; with MDA-MB-231 breast it was 16.4 µM; in the assay with 786-0 renal, 18.8 µM. Moreover, the GI50 with HCC-2998 colon was 17.5 µM; in the assay on DU-145 prostate, 25.7 µM; with CCRF-CEM leukemia, 22 µM; with BT-549 breast, 23 µM. For the same compound, the TGI in the assay on HCT-15 colon is 38.7 µM; in the assay on SK-MEL-5 melanoma, 31.3 µM; in the assay with PC-3 prostate, above 100 µM; in the assay on HL-60(TB) leukemia, 61 µM; in the assay on MDA-MB-231 breast, 35.7 µM; with 786-0 renal it was 37.7 µM. Moreover, the TGI was 40 µM with HCC-2998 colon, 78.1 µM with DU-145 prostate, above 100 µM in the assay on CCRF-CEM leukemia and 55.9 µM with BT-549 breast.

On to `CN1CCN(c2ccc(Nc3nc(N)c(C(=O)c4ccc5c(c4)OCCO5)s3)cc2)CC1`, for which the GI50 was 4.08 µM with HCT-15 colon; 3.52 µM in the assay on SK-MEL-5 melanoma; 1.77 µM in the assay on PC-3 prostate; 4.62 µM in the assay on HL-60(TB) leukemia; 3.22 µM in the assay with MDA-MB-231 breast; 3.44 µM in the assay with 786-0 renal. In addition, the GI50 in the assay with HCC-2998 colon was 9.67 µM; in the assay with DU-145 prostate, 4.34 µM; with CCRF-CEM leukemia, 4.66 µM; in the assay with BT-549 breast it was 4.71 µM. For the same compound, the TGI with HCT-15 colon is above 25 µM; in the assay with SK-MEL-5 melanoma, 8.88 µM; with PC-3 prostate, 8.47 µM; in the assay on HL-60(TB) leukemia, 11.6 µM; with MDA-MB-231 breast it was 9.94 µM; with 786-0 renal it was 8.23 µM. Further, the TGI with HCC-2998 colon was above 19.6 µM; in the assay with DU-145 prostate, 16.5 µM; in the assay on CCRF-CEM leukemia it was 23.9 µM; in the assay on BT-549 breast, 9.46 µM.

On to `Cc1ccc(C(=O)Nc2ccc(S(=O)(=O)O)c3cc(S(=O)(=O)O)cc(S(=O)(=O)O)c23)cc1NC(=S)Nc1cc(C(=O)Nc2ccc(S(=O)(=O)O)c3cc(S(=O)(=O)O)cc(S(=O)(=O)O)c23)ccc1C`, for which the TGI in the assay with HCT-15 colon, in the assay with SK-MEL-5 melanoma, in the assay on PC-3 prostate, in the assay on HL-60(TB) leukemia, with MDA-MB-231 breast and in the assay on 786-0 renal was above 75 µM each time. For the same compound, the TGI in the assay on HCC-2998 colon, in the assay with DU-145 prostate, with CCRF-CEM leukemia and in the assay with BT-549 breast was above 75 µM throughout.

On to `CC(C)CC(=O)Nc1n[nH]c2c1CN(C(=O)C1CCN(C)CC1)C2(C)C`, for which the GI50 in the assay with HCT-15 colon was above 10 µM; with SK-MEL-5 melanoma, 0.743 µM; in the assay with PC-3 prostate it was 1.33 µM; in the assay on HL-60(TB) leukemia it was 0.513 µM; in the assay with MDA-MB-231 breast it was 0.894 µM; in the assay on 786-0 renal, 2.07 µM. For the same compound, the GI50 was 1.17 µM with HCC-2998 colon, 1.6 µM in the assay on DU-145 prostate, 0.95 µM in the assay on CCRF-CEM leukemia and 3.86 µM with BT-549 breast. Also, the TGI in the assay on HCT-15 colon is above 10 µM; with SK-MEL-5 melanoma, 5.7 µM; in the assay on PC-3 prostate, above 10 µM; in the assay with HL-60(TB) leukemia it was 4.97 µM; with MDA-MB-231 breast it was above 10 µM; with 786-0 renal, above 10 µM. The TGI in the assay with HCC-2998 colon, in the assay on DU-145 prostate, in the assay with CCRF-CEM leukemia and in the assay on BT-549 breast was above 10 µM each time.
